Laboratory results: US20210222225A1, “Medium for Disk Diffusion Method to Evaluate Antibiotic Sensitivity” (priority 2018, published 2021)

Assays:
PAE P1401_S = experiment: Colistin disk diffusion, guanidine hydrochloride medium, P1401_S; format: cell-based, Pseudomonas aeruginosa; settings: 30% agar
Description: (§1) A concentration of agar particles (BD Diagnostic, Sparks, Md., USA) in Mueller-Hinton broth medium (BD Diagnostic) was adjusted to 5.1 g/L, which is 30% of 17 g/L, and guanidine hydrochloride was added to a concentration of 500 μg/ml, 50 μg/ml, or 5 μg/ml. Then, solidification was performed. On a surface of each medium thus prepared was evenly inoculated each of colistin-susceptible (S) or -resistant (R) Acinetobacter baumannii (ABA) strain, colistin-susceptible (S) or -resistant (R) Klebsiella pnemoniae (KPN) strain, and colistin-susceptible (S) or -resistant (R) Pseudomonas aeruginosa (PAE) strain, and a colistin disk was placed thereon. Then, pictures of a growth inhibition zone, which had been formed clear, around the disk were taken for each strain, and the results are illustrated in FIGS. 8 to 10.

ABA A17_S = experiment: Colistin disk diffusion, guanidine hydrochloride medium, A17_S; format: cell-based, Acinetobacter baumannii; settings: 30% agar
Description: as §1

[1] = system: Escherichia coli ATCC25922 strain; experiment: Colistin disk diffusion on modified Mueller-Hinton agar, ECO; format: cell-based; settings: protamine 100 μg/ml
Description: (§2) To each MHA thus modified was added protamine (Sigma-Aldrich, St Louis, Mo., USA) at a concentration of 100 μg/ml, and solidification was performed. Then, on a surface of the medium was evenly inoculated each of colistin-susceptible (S) or -resistant (R) Acinetobacter calcoaceticus-baumannii complex (ACB) strain, Pseudomonas aeruginosa ATCC27853 strain, Escherichia coli ATCC25922 strain, and mcr-1-harboring Enterobacter aerogenes strain, and a colistin disk was placed thereon. Subsequently, a diameter of a growth inhibition zone (colistin inhibition zone), which had been formed clear by diffusion of colistin to the agar around the colistin disk, was measured.

KPN K4056_R = experiment: Colistin disk diffusion, guanidine hydrochloride medium, K4056_R; format: cell-based, Klebsiella pnemoniae; settings: 30% agar
Description: as §1

PAE P1477_S = experiment: Colistin disk diffusion, guanidine hydrochloride medium, P1477_S; format: cell-based, Pseudomonas aeruginosa; settings: 30% agar
Description: as §1

[2] = system: colistin-resistant (R) Acinetobacter calcoaceticus-baumannii complex (ACB) strain; experiment: Colistin disk diffusion on modified Mueller-Hinton agar, ACB-R; format: cell-based
Description: as §2
(§3) As in Example 1, a concentration of agar particles (BD Diagnostic, Sparks, Md., USA) in Mueller-Hinton broth medium (BD Diagnostic) was adjusted to 17 g/L or 5.1 g/L that is 30% of 17 g/L. To select a concentration of protamine, which can enhance diffusion of colistin from a disk without interfering with bacterial growth, while using the protamine at various concentrations, protamine (Sigma-Aldrich, St Louis, Mo., USA) was added to the medium at concentrations of 1 mg/ml, 700 μg/ml, 400 μg/ml, 300 μg/ml, 200 μg/ml, 150 μg/ml, 100 μg/ml, and 50 μg/ml. Each medium thus modified was solidified. Then, on a surface of each medium was evenly inoculated each of colistin-susceptible (S) or -resistant (R) Acinetobacter calcoaceticus-baumannii complex (ACB) strain, Pseudomonas aeruginosa ATCC27853 strain, and mcr-1-harboring Enterobacter aerogenes strain, and a colistin disk was placed thereon. Then, it was determined whether each strain was grown, and a diameter of a growth inhibition zone, which had been formed around the disk, was measured.

[3] = system: colistin-susceptible (S) Acinetobacter calcoaceticus-baumannii complex (ACB) strain; experiment: Colistin disk diffusion on modified Mueller-Hinton agar, ACB-S; format: cell-based
Description: as §2, §3

[4] = system: mcr-1-harboring Enterobacter aerogenes strain; experiment: Colistin disk diffusion on modified Mueller-Hinton agar, mcr-1; format: cell-based
Description: as §2, §3

[5] = guanidine hydrochloride 5 μg/ml
[6] = guanidine hydrochloride 50 μg/ml
[7] = guanidine hydrochloride 500 μg/ml
[8] = 30% agar, protamine 1,000 μg/ml
[9] = 100% agar, protamine 1,000 μg/ml

Substance: colistin
- Disk diffusion (mm) (PAE P1401_S; [5]): 16 mm
- Disk diffusion (mm) (PAE P1401_S; [6]): 15 mm
- Disk diffusion (mm) (PAE P1401_S; [7]): 16 mm
- Disk diffusion (mm) (ABA A17_S; [5]): 15 mm
- Disk diffusion (mm) (ABA A17_S; [6]): 15 mm
- Disk diffusion (mm) (ABA A17_S; [7]): 15 mm
- Diameter (mm) of colistin inhibition zone ([1]; 30% agar): 16 mm
- Diameter (mm) of colistin inhibition zone ([1]; 40% agar): 14 mm
- Diameter (mm) of colistin inhibition zone ([1]; 50% agar): 14 mm
- Diameter (mm) of colistin inhibition zone ([1]; 60% agar): 14 mm
- Diameter (mm) of colistin inhibition zone ([1]; 70% agar): 14 mm
- Diameter (mm) of colistin inhibition zone ([1]; 80% agar): 14 mm
- Diameter (mm) of colistin inhibition zone ([1]; 90% agar): 13 mm
- Diameter (mm) of colistin inhibition zone ([1]; 100% agar): 13 mm
- Disk diffusion (mm) (KPN K4056_R; [5]): 12 mm
- Disk diffusion (mm) (KPN K4056_R; [6]): 12 mm
- Disk diffusion (mm) (KPN K4056_R; [7]): 10 mm
- Disk diffusion (mm) (PAE P1477_S; [5]): 16 mm
- Disk diffusion (mm) (PAE P1477_S; [6]): 16 mm
- Disk diffusion (mm) (PAE P1477_S; [7]): 14 mm
- Disk diffusion (mm) ([2]; 30% agar, protamine 50 μg/ml): 13 mm
- Diameter (mm) of colistin inhibition zone ([2]; 30% agar, protamine 100 μg/ml): 11 mm
- Disk diffusion (mm) ([2]; 30% agar, protamine 100 μg/ml): 11 mm
- Disk diffusion (mm) ([2]; 30% agar, protamine 150 μg/ml): 10 mm
- Disk diffusion (mm) ([2]; 30% agar, protamine 200 μg/ml): 8 mm
- Disk diffusion (mm) ([2]; 30% agar, protamine 300 μg/ml): 6 mm
- Disk diffusion (mm) ([2]; 30% agar, protamine 400 μg/ml): 6 mm
- Disk diffusion (mm) ([2]; 30% agar, protamine 700 μg/ml): 6 mm
- Disk diffusion (mm) [2, 8]: 6 mm
- Diameter (mm) of colistin inhibition zone ([2]; 40% agar, protamine 100 μg/ml): 11 mm
- Diameter (mm) of colistin inhibition zone ([2]; 50% agar, protamine 100 μg/ml): 10 mm
- Diameter (mm) of colistin inhibition zone ([2]; 60% agar, protamine 100 μg/ml): 13 mm
- Diameter (mm) of colistin inhibition zone ([2]; 70% agar, protamine 100 μg/ml): 11 mm
- Diameter (mm) of colistin inhibition zone ([2]; 80% agar, protamine 100 μg/ml): 12 mm
- Diameter (mm) of colistin inhibition zone ([2]; 90% agar, protamine 100 μg/ml): 12 mm
- Disk diffusion (mm) ([2]; 100% agar, protamine 50 μg/ml): 13 mm
- Diameter (mm) of colistin inhibition zone ([2]; 100% agar, protamine 100 μg/ml): 11 mm
- Disk diffusion (mm) ([2]; 100% agar, protamine 100 μg/ml): 12 mm
- Disk diffusion (mm) ([2]; 100% agar, protamine 150 μg/ml): 13 mm
- Disk diffusion (mm) ([2]; 100% agar, protamine 200 μg/ml): 12 mm
- Disk diffusion (mm) ([2]; 100% agar, protamine 300 μg/ml): 12 mm
- Disk diffusion (mm) ([2]; 100% agar, protamine 400 μg/ml): 13 mm
- Disk diffusion (mm) ([2]; 100% agar, protamine 700 μg/ml): 6 mm
- Disk diffusion (mm) [2, 9]: 6 mm
- Disk diffusion (mm) ([3]; 30% agar, protamine 50 μg/ml): 14 mm
- Diameter (mm) of colistin inhibition zone ([3]; 30% agar, protamine 100 μg/ml): 16 mm
- Disk diffusion (mm) ([3]; 30% agar, protamine 100 μg/ml): 15 mm
- Disk diffusion (mm) ([3]; 30% agar, protamine 150 μg/ml): 15 mm
- Disk diffusion (mm) ([3]; 30% agar, protamine 200 μg/ml): 14 mm
- Disk diffusion (mm) ([3]; 30% agar, protamine 300 μg/ml): 6 mm
- Disk diffusion (mm) ([3]; 30% agar, protamine 400 μg/ml): 6 mm
- Disk diffusion (mm) ([3]; 30% agar, protamine 700 μg/ml): 6 mm
- Disk diffusion (mm) [3, 8]: 6 mm
- Diameter (mm) of colistin inhibition zone ([3]; 40% agar, protamine 100 μg/ml): 15 mm
- Diameter (mm) of colistin inhibition zone ([3]; 50% agar, protamine 100 μg/ml): 13 mm
- Diameter (mm) of colistin inhibition zone ([3]; 60% agar, protamine 100 μg/ml): 13 mm
- Diameter (mm) of colistin inhibition zone ([3]; 70% agar, protamine 100 μg/ml): 13 mm
- Diameter (mm) of colistin inhibition zone ([3]; 80% agar, protamine 100 μg/ml): 12 mm
- Diameter (mm) of colistin inhibition zone ([3]; 90% agar, protamine 100 μg/ml): 12 mm
- Disk diffusion (mm) ([3]; 100% agar, protamine 50 μg/ml): 13 mm
- Diameter (mm) of colistin inhibition zone ([3]; 100% agar, protamine 100 μg/ml): 12 mm
- Disk diffusion (mm) ([3]; 100% agar, protamine 100 μg/ml): 12 mm
- Disk diffusion (mm) ([3]; 100% agar, protamine 150 μg/ml): 13 mm
- Disk diffusion (mm) ([3]; 100% agar, protamine 200 μg/ml): 12 mm
- Disk diffusion (mm) ([3]; 100% agar, protamine 300 μg/ml): 13 mm
- Disk diffusion (mm) ([3]; 100% agar, protamine 400 μg/ml): 14 mm
- Disk diffusion (mm) ([3]; 100% agar, protamine 700 μg/ml): 10 mm
- Disk diffusion (mm) [3, 9]: 6 mm
- Disk diffusion (mm) ([4]; 30% agar, protamine 50 μg/ml): 9 mm
- Diameter (mm) of colistin inhibition zone ([4]; 30% agar, protamine 100 μg/ml): 11 mm
- Disk diffusion (mm) ([4]; 30% agar, protamine 100 μg/ml): 9 mm
- Disk diffusion (mm) ([4]; 30% agar, protamine 150 μg/ml): 9 mm
- Disk diffusion (mm) ([4]; 30% agar, protamine 200 μg/ml): 8 mm
- Disk diffusion (mm) ([4]; 30% agar, protamine 300 μg/ml): 6 mm
- Disk diffusion (mm) ([4]; 30% agar, protamine 400 μg/ml): 6 mm
- Disk diffusion (mm) ([4]; 30% agar, protamine 700 μg/ml): 6 mm
- Disk diffusion (mm) [4, 8]: 6 mm
- Diameter (mm) of colistin inhibition zone ([4]; 40% agar, protamine 100 μg/ml): 10 mm
- Diameter (mm) of colistin inhibition zone ([4]; 50% agar, protamine 100 μg/ml): 11 mm
- Diameter (mm) of colistin inhibition zone ([4]; 60% agar, protamine 100 μg/ml): 10 mm
- Diameter (mm) of colistin inhibition zone ([4]; 70% agar, protamine 100 μg/ml): 10 mm
- Diameter (mm) of colistin inhibition zone ([4]; 80% agar, protamine 100 μg/ml): 9 mm
- Diameter (mm) of colistin inhibition zone ([4]; 90% agar, protamine 100 μg/ml): 10 mm
- Disk diffusion (mm) ([4]; 100% agar, protamine 50 μg/ml): 9 mm
- Diameter (mm) of colistin inhibition zone ([4]; 100% agar, protamine 100 μg/ml): 10 mm
- Disk diffusion (mm) ([4]; 100% agar, protamine 100 μg/ml): 9 mm
- Disk diffusion (mm) ([4]; 100% agar, protamine 150 μg/ml): 10 mm
- Disk diffusion (mm) ([4]; 100% agar, protamine 200 μg/ml): 9 mm
- Disk diffusion (mm) ([4]; 100% agar, protamine 300 μg/ml): 10 mm
- Disk diffusion (mm) ([4]; 100% agar, protamine 400 μg/ml): 8 mm
- Disk diffusion (mm) ([4]; 100% agar, protamine 700 μg/ml): 10 mm
- Disk diffusion (mm) [4, 9]: 6 mm
